# Values of other authors as cited in publication PMC11291603, “Histidine-based ionizable cationic surfactants: novel biodegradable agents for hydrophilic macromolecular drug delivery” (Drug Delivery and Translational Research, 2024).
# Assays:
# [1] = as specified by the manufacturer
# [2] = literature value, no reference given
Compound,Aqueous solubility [1] [µg/mL],pKa of the imidazolium ring [2]
CCCCCCCCC(CO)CCCCCC (centres unmarked) [2-hexyl-1-decanol],1,
N[C@@H](Cc1c[nH]cn1)C(=O)O [histidine],,6.0-6.1
